# Assay results taken from patent publication US20120053200A1, “BACE 2 INHIBITORS” (priority 2010, published 2012).
# Molecular target: T1, BACE2 (Rattus norvegicus, UniProt Q6IE75)
# T1 construct: endogenous cellular BACE2 in the Ins1e rat cell line; endogenous in cells; host or cells: INS-TMEM27 (INS1e-derived rat beta-cell line with doxycycline-inducible full-length hTMEM27)
# T1 sequence (Q6IE75 63-514): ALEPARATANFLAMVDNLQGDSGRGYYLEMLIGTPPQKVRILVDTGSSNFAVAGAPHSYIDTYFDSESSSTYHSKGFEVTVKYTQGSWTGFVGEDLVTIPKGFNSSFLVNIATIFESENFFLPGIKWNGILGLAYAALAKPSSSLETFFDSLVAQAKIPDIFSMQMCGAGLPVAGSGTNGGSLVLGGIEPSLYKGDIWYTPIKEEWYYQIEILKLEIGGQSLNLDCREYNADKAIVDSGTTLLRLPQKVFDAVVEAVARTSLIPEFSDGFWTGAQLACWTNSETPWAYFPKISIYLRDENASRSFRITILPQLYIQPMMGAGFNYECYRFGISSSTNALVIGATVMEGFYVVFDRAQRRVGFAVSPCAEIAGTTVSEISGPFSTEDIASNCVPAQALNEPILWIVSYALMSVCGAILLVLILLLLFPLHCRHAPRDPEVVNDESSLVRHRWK
# Assay: Assay for BACE inhibition by measuring cellular TMEM27 cleavage (INS-TMEM27 cells, ELISA of shed TMEM27)
# Format: cell-based
# Conditions: inhibition of human TMEM27 cleavage by endogenous cellular BACE2 in INS1e-derived INS-TMEM27 rat cell line; ELISA of shed TMEM27 in supernatant
# Excerpt: Assay for […] Inhibition by Measuring Cellular TMEM27 Cleavage
# This assay uses the principle of inhibition of human TMEM27 cleavage by endogenous cellular BACE2 in the Ins1e rat cell line and shedding from the cell surface into the culture medium, followed by detection in an ELISA assay. Inhibition of BACE2 prevents the cleavage and shedding in a dose-dependent manner.
# The stable cell line “INS-TMEM27” represents an INS1e-derived cell line with inducible expression (using the TetOn system) of full-length hTMEM27 in a doxycycline-dependent manner. The cells were cultured throughout the experiment in RPMI1640+Glutamax (Invitrogen) Penicillin/Streptomycin, 10% Fetal bovine serum, 100 mM pyruvate, […] beta-mercatptoethanol, 100 micrograms/ml G418 and 100 microgram/ml hygromycin and were grown in adherent culture at 37° C. in a standard CO2 cell culture incubator.
# INS-TMEM27 cells were seeded in 96-well plates. After 2 days in culture, BACE2 inhibitor was added in a range of concentrations as required by the assay and after a further two hours, doxycycline was added to a final concentration of 500 ng/ml. The cells were incubated for a further 46 hours and the supernatant harvested for detection of shed TMEM27.
# An ELISA assay (using a pair of mouse anti-human-TMEM27 antibodies, raised against the extracellular domain of TMEM27) was used for detection of TMEM27 in the culture medium. An IC50 for BACE2 inhibition was calculated using the ELISA readout for each inhibitor concentration with standard curve-fitting software.
# The inhibitory activity, given as an IC50 value, of the compounds of Examples 1 to 32 and 34 to 74 were as follows.
row,SMILES,IC50
1,"CCn1cc(CNC[C@@H](O)[C@H](Cc2ccccc2)NC(=O)c2cccc(C(=O)N3CCCC3c3ccccc3)c2)cn1 (stereo partly drawn) [Example 23, N-{(1S,2R)-1-Benzyl-3-[(1-ethyl-1H-pyrazol-4-ylmethyl)-amino]-2-hydroxy-propyl}-3-(2-phenyl-pyrrolidine-1-carbonyl)-benzamide]",57.7 nM
2,"O=C(N[C@@H](Cc1ccccc1)[C@H](O)CNCc1cccc(OC(F)(F)F)c1)c1cccc(C(=O)N2CCCC2c2ccccc2)c1 (stereo partly drawn) [Example 24, N-[(1S,2R)-1-Benzyl-2-hydroxy-3-(3-trifluoromethoxy-benzylamino)-propyl]-3-(2-phenyl-pyrrolidine-1-carbonyl)-benzamide]",68 nM
3,"O=C(N[C@@H](Cc1ccccc1)[C@H](O)CNCc1cccc(OC(F)(F)F)c1)c1cccc(C(=O)N2CCCC2c2cccnc2)c1 (stereo partly drawn) [Example 25, N-[(1S,2R)-1-Benzyl-2-hydroxy-3-(3-trifluoromethoxy-benzylamino)-propyl]-3-(2-pyridin-3-yl-pyrrolidine-1-carbonyl)-benzamide]",70 nM
4,"Cc1cc(C2CCCN2C(=O)c2cccc(C(=O)N[C@@H](Cc3ccccc3)[C@H](O)CNCc3cccc(OC(F)(F)F)c3)c2)on1 (stereo partly drawn) [Example 26, N-[(1S,2R)-1-Benzyl-2-hydroxy-3-(3-trifluoromethoxy-benzylamino)-propyl]-3-[2-(3-methyl-isoxazol-5-yl)-pyrrolidine-1-carbonyl]-benzamide]",284 nM
5,"COc1cccc(CNC[C@@H](O)[C@H](Cc2ccccc2)NC(=O)c2cccc(C(=O)N3CCCC3c3ccc(C)s3)c2)c1 (stereo partly drawn) [Example 27, N-[(1S,2R)-1-Benzyl-2-hydroxy-3-(3-methoxy-benzylamino)-propyl]-3-[2-(5-methyl-thiophen-2-yl)-pyrrolidine-1-carbonyl]-benzamide]",314 nM
6,"COc1cccc(CNC[C@@H](O)[C@H](Cc2ccccc2)NC(=O)c2cccc(C(=O)N(C)Cc3ccccn3)c2)c1 [Example 28, N-[(1S,2R)-1-Benzyl-2-hydroxy-3-(3-methoxy-benzylamino)-propyl]-N′-methyl-N′-pyridin-2-ylmethyl-isophthalamide]",511 nM
7,"CN(Cc1ccccn1)C(=O)c1cccc(C(=O)N[C@@H](Cc2ccccc2)[C@H](O)CNCc2cccc(OC(F)(F)F)c2)c1 [Example 29, N-[(1S,2R)-1-Benzyl-2-hydroxy-3-(3-trifluoromethoxy-benzylamino)-propyl]-N′-methyl-N′-pyridin-2-ylmethyl-isophthalamide]",112 nM
8,"COc1cccc(CNC[C@@H](O)[C@H](Cc2ccccc2)NC(=O)c2cccc(C(=O)N3CCCC3c3cccs3)c2)c1 (stereo partly drawn) [Example 30, N-[(1S,2R)-1-Benzyl-2-hydroxy-3-(3-methoxy-benzylamino)-propyl]-3-(2-thiophen-2-yl-pyrrolidine-1-carbonyl)-benzamide]",16 nM
9,"CCn1cc(CNC[C@@H](O)[C@H](Cc2ccccc2)NC(=O)c2cccc(C(=O)N3CCCC3c3cccs3)c2)cn1 (stereo partly drawn) [Example 31, N-{(1S,2R)-1-Benzyl-3-[(1-ethyl-1H-pyrazol-4-ylmethyl)-amino]-2-hydroxy-propyl}-3-(2-thiophen-2-yl-pyrrolidine-1-carbonyl)-benzamide]",239 nM
10,"O=C(N[C@@H](Cc1ccccc1)[C@H](O)CNCc1cccc(OC(F)(F)F)c1)c1cccc(C(=O)N2CCCC2c2cccs2)c1 (stereo partly drawn) [Example 32, N-[(1S,2R)-1-Benzyl-2-hydroxy-3-(3-trifluoromethoxy-benzylamino)-propyl]-3-(2-thiophen-2-yl-pyrrolidine-1-carbonyl)-benzamide]",138 nM
11,"CCn1cc(CNC[C@@H](O)[C@H](Cc2ccccc2)NC(=O)c2cc(C)cc(C(=O)N3CCC[C@@H]3c3nc(C)cs3)c2)cn1 [Example 34, N-{(1S,2R)-1-Benzyl-3-[(1-ethyl-1H-pyrazol-4-ylmethyl)-amino]-2-hydroxy-propyl}-3-methyl-5-[(R)-2-(4-methyl-thiazol-2-yl)-pyrrolidine-1-carbonyl]-benzamide]",145 nM
12,"CCn1cc(CNC[C@@H](O)[C@H](Cc2ccccc2)NC(=O)c2cc(C)cc(C(=O)N(C)Cc3nc(C)cs3)c2)cn1 [Example 40, N-{(1S,2R)-1-Benzyl-3-[(1-ethyl-1H-pyrazol-4-ylmethyl)-amino]-2-hydroxy-propyl}-5,N′-dimethyl-N′-(4-methyl-thiazol-2-ylmethyl)-isophthalamide]",104 nM
13,"CN(c1cc(C(=O)N[C@@H](Cc2ccccc2)[C@H](O)CNCc2cccc(OC(F)(F)F)c2)cc(C(=O)N2CCCC2c2ccccc2)c1)S(C)(=O)=O (stereo partly drawn) [Example 42, N-[(1S,2R)-1-Benzyl-2-hydroxy-3-(3-trifluoromethoxy-benzylamino)-propyl]-3-(methanesulfonyl-methyl-amino)-5-(2-phenyl-pyrrolidine-1-carbonyl)-benzamide]",62 nM

# The next molecules have a lower IC50 than those just listed; values first:
row,IC50,SMILES
1,1 nM,"CCn1cc(CNC[C@@H](O)[C@H](Cc2ccccc2)NC(=O)c2cc(C)cc(C(=O)N3CCCC3c3ccccc3)c2)cn1 (stereo partly drawn) [Example 36, N-{(1S,2R)-1-Benzyl-3-[(1-ethyl-1H-pyrazol-4-ylmethyl)-amino]-2-hydroxy-propyl}-3-methyl-5-(2-phenyl-pyrrolidine-1-carbonyl)-benzamide]"
2,1 nM,"CCn1cc(CNC[C@@H](O)[C@H](Cc2ccccc2)NC(=O)c2cc(C)cc(C(=O)N(C)Cc3ccccn3)c2)cn1 [Example 37, N-{(1S,2R)-1-Benzyl-3-[(1-ethyl-1H-pyrazol-4-ylmethyl)-amino]-2-hydroxy-propyl}-5,N′-dimethyl-N′-pyridin-2-ylmethyl-isophthalamide]"
3,1 nM,"CCn1cc(CNC[C@@H](O)[C@H](Cc2ccccc2)NC(=O)c2cc(C)cc(C(=O)N3CCCC3c3cccs3)c2)cn1 (stereo partly drawn) [Example 39, N-{(1S,2R)-1-Benzyl-3-[(1-ethyl-1H-pyrazol-4-ylmethyl)-amino]-2-hydroxy-propyl}-3-methyl-5-(2-thiophen-2-yl-pyrrolidine-1-carbonyl)-benzamide]"
4,0.3 nM,"CCn1cc(CNC[C@@H](O)[C@H](Cc2ccccc2)NC(=O)c2cc(C(=O)N3CCCC3c3cccs3)cc(N(C)S(C)(=O)=O)c2)cn1 (stereo partly drawn) [Example 38, N-{(1S,2R)-1-Benzyl-3-[(1-ethyl-1H-pyrazol-4-ylmethyl)-amino]-2-hydroxy-propyl}-3-(methanesulfonyl-methyl-amino)-5-(2-thiophen-2-yl-pyrrolidine-1-carbonyl)-benzamide]"
5,0.2 nM,"CCn1cc(CNC[C@@H](O)[C@H](Cc2ccccc2)NC(=O)c2cc(C(=O)N3CCCC3c3ccccc3)cc(N(C)S(C)(=O)=O)c2)cn1 (stereo partly drawn) [Example 35, N-{(1S,2R)-1-Benzyl-3-[(1-ethyl-1H-pyrazol-4-ylmethyl)-amino]-2-hydroxy-propyl}-3-(methanesulfonyl-methyl-amino)-5-(2-phenyl-pyrrolidine-1-carbonyl)-benzamide]"
6,0.1 nM,"Cc1csc([C@H]2CCCN2C(=O)c2cc(C(=O)N[C@@H](Cc3ccccc3)[C@H](O)CNCc3cccc(OC(F)(F)F)c3)cc(N(C)S(C)(=O)=O)c2)n1 [Example 41, N-[(1S,2R)-1-Benzyl-2-hydroxy-3-(3-trifluoromethoxy-benzylamino)-propyl]-3-(methanesulfonyl-methyl-amino)-5-[(R)-2-(4-methyl-thiazol-2-yl)-pyrrolidine-1-carbonyl]-benzamide]"
